The subject of experiment [1] is NIH3T3 cells. Nature of the experiment: Cell proliferation, parental NIH3T3. The settings on record: non-transformed NIH3T3, 0-96 hours. In kind it is cell-based. Here is the method: Cell Proliferation. Cells were collected and examined for cell number by trypan blue exclusion and hemocytometer counting under microscope at 0 h, 24 h, 48 h, 72 h and 96 h. All the samples were performed in triplicate and the averages of 3 independent experiments were reported.

For experiment [2], the system named is NIH3T3 cells. Nature of the experiment: Anoikis assay in transfected NIH3T3 cells. In kind it is cell-based. The settings on record: transfected NIH3T3, poly-HEMA plates, 12 or 24 hours, vs pcDNA3 (FIG. 10B). Here is the method: (§1) Parental NIH3T3 cells (FIG. 10A) were transiently transfected with pcDNA3 vector, HRas61L, or Akt in the presence or absence of RhoA, RhoB, or pcDNA3 for 36 hours. The cells were then split and cultured in DMEM medium containing 2 μM 5-FU for another 48 hours. The cells were then examined for their susceptibility to 5-FU-induced apoptosis by Annexin V labeling and flow cytometry apoptosis assays as described in the Materials and Methods section. 36 hours after the transfection, a fraction of the cells from FIG. 10A were washed and re-suspended in serum-free medium and seeded into the pre-coated plates and examined for viability at different time points by Annex V and 7-AAD labeling, as shown in FIG. 10B. In FIG. 10B, the bars at each time point (0, 12, 24 hrs), left-to-right, correspond to PCD, H-Ras, AKT, RhoA, RhoB, Akt+RhoA, and Akt+RhoB, respectively. B16-F10 melanoma cells were transiently transfected with pcDNA3 vector, pcDNA-RhoA or pcDNA-RhoB; 20 hours later, the cells were examined for gene delivery by Western Blotting with anti-HA, as shown in FIG. 10C. 5×10^5 of the cells from FIG. 10A were injected into the tail veins of C57/B16 mice. The numbers of metastatic nodules per mouse lung represent an average±standard error from 5 mice per group. […]
Anoikis Assay. […] 24 hrs later the cellular viability was determined by trypan blue exclusion.

In experiment [3] the test system is PANC-1 cells. The experiment can be described thus: Migration through collagen type I coated transfilters, PANC-1 cells. In kind it is cell-based, human. The settings on record: PANC-1 cells (FIG. 8C). Here is the method: (§2) Parental NIH3T3 (FIG. 8A) were transiently transfected with pcDNA3 vector control, H-Ras61L, CA-PI3K, or CA-Akt in the presence or absence of RhoA or RhoB or pcDNA3 for 36 hours. The cells were then split and cultured for another 4 weeks. The plates were examined for focus formation by staining. H-Ras/3T3 cells (FIG. 8B) and PANC-1 cells (FIG. 8C) were transiently transfected with pcDNA3 vector control, CA-Akt, or WT-Akt in the presence or absence of RhoA, RhoB, or pcDNA3 for 36 hours. The cells were then split and analyzed for their migration capabilities through collagen type I coated transfilters as described in the Materials and Methods section. NIH3T3 cells (FIGS. 8D and 8E) were transiently transfected with pcDNA3 vector control, H-Ras61L, CA-Akt, or WT-Akt in the presence or absence of RhoA, RhoB, or pcDNA3 for 36 hours. The monolayers were then scratched with a 20 μl pipette tip and micro-photographed at the time points indicated for analyzing their capability to migrate into and fill the wounded area.

Experiment [4] has as its system NIH3T3 cells. The experiment can be described thus: Wound healing migration assay in NIH3T3 cells. The settings on record: NIH3T3, 24 hours after wounding (FIG. 8D). In kind it is cell-based. Here is the method:
as §2
The ability of RhoB to inhibit cancer cell migration was further confirmed in a different assay where cells are induced to migrate by physical wounding of cells plated on fibronectin pre-coated plates.

The test system of another experiment is MMP-2. Nature of the experiment: MMP-2 expression in conditioned medium of PANC-1 and PC3 cells (Western blotting). In kind it is cell-based, human. The settings on record: conditioned medium (FIG. 9C). Here is the method:
(§3) HRas/3T3 cells (FIG. 9A) and PANC-1 cells (FIG. 9B) were transiently transfected with pcDNA3 vector control, H-Ras61L, CA-Akt, or WT-Akt in the presence or absence of RhoA, RhoB, or pcDNA3 for 36 hours. The cells were then split and analyzed for their invading capabilities through […]-coated transfilters as described in the Materials and Methods section. PANC-1 and PC3 cells (FIG. 9C) were transiently transfected with pcDNA3, with H-Ras61L in the presence or absence of RhoA, or RhoB for 36 hours. The cells were then serum-starved for another 36 hours; the conditioned medium was collected and 20 μg protein were analyzed for MMP-2 expression by Western Blotting.
One pivotal step in these processes is the ability of cancer cells to cut through the extracellular matrix. This is accomplished by a cascade of proteinases, among which matrix metalloproteinases (MMPs) play a pivotal role (Yoon, S. O. et al., J Biochem Mol Biol, 2003, 36:128-37; Stamenkovic, I. Semin Cancer Biol, 2000, 10:415-33). […] To this end, PANC-1 and PC3 cells were treated with LY294002, or transfected with pcDNA3-RhoA or RhoB, and the conditioned culture medium was collected and analyzed for MMP-2 expression by anti-MMP-2 Western blotting as described in the Materials and Methods section.
For orientation: A western blot detects proteins with antibodies after separation by electrophoresis.

Another experiment has as its system B16-F10 melanoma cells. Nature of the experiment: Melanoma metastasis assay (B16-F10 cells injected into tail vein). In kind it is in vivo, mouse. The settings on record: transfected B16-F10 cells, C57 black mice, after 3 weeks, pcDNA3 control 14.8±1.9. On the procedure:
as §1, with “respectively.” for “respectively. B16-F10 melanoma cells were transiently transfected with pcDNA3 vector, pcDNA-RhoA or pcDNA-RhoB; 20 hours later, the cells were examined for gene delivery by Western Blotting with anti-HA, as shown in FIG. 10C. 5×10^5 of the cells from FIG. 10A were injected into the tail veins of C57/B16 mice. The numbers of metastatic nodules per mouse lung represent an average±standard error from 5 mice per group.”
Melanoma Metastasis Assay. pcDNA3, pcDNA-RhoB and pcDNA-RhoA were transfected into B16-F10 cells similarly as described above. The cells were harvested 20 hours post-transfection; 5×10^5 cells from each group were analyzed for transfection efficiency by Western Blotting; another 5×10^5 cells were injected into the tail veins of C57/B16 mice (6 wk, F). The mice were sacrificed at the indicated intervals and the nodules growing in the lungs were counted.

The subject of experiment [5] is PANC-1 cells. Nature of the experiment: Invasion through […]-coated transfilters, PANC-1 cells. In kind it is cell-based, human. The settings on record: PANC-1 cells (FIG. 9B). On the procedure:
as §3
Whether RhoB can also antagonize cell invasion was evaluated. To this end, H-Ras/3T3 and PANC-1 cells were similarly transfected as above with various oncogenes along with RhoA or RhoB, then seeded onto […]-coated poly-hydrocarbonate filters mounted in the middle of a Boyden transwell apparatus as described under Methods. […] Furthermore, transfection with CA-Akt or WT-Akt enhanced invasion; and RhoB, not RhoA, inhibited this enhancement of invasion (FIGS. 9A and 9B).

In the case of “RhoB: low molecular weight GTPase; wild-type RhoB subcloned into HA-tagged pcDNA3 and ectopically expressed by transfection”, the growth rate entry in the experiment on NIH3T3 cells [1] is “not affected”. In addition, the “cell death induced by lack of attachment (anoikis)” value with NIH3T3 cells [2] is listed as “significantly higher cell death”. The “ability to migrate through collagen type I” value in the experiment with PANC-1 cells [3] is “dramatically hindered”. In addition, the wound healing result with NIH3T3 cells [4] is recorded as “inhibited”. Besides, the MMP-2 protein secreted result in the experiment on MMP-2 is on record as “remarkably reduced”. Further, the “metastatic colonies per lung” value in the experiment on B16-F10 melanoma cells turned out to be 2±0.7.

“RhoA: closely related family member sharing 86% sequence identity with RhoB; wild-type, in HA-tagged pcDNA3, transfected as control”: in the experiment with NIH3T3 cells [1], the growth rate entry is “enhanced the rate of growth”. Moreover, in the experiment on NIH3T3 cells [2], the “cell death induced by lack of attachment (anoikis)” value is on record as “much lower rate of anoikis”. Moreover, in the experiment on PANC-1 cells [3], the “ability to migrate through collagen type I” value is reported as “migrated”. Further, the wound healing result with NIH3T3 cells [4] is “accelerated”. In addition, in the experiment on PANC-1 cells [5], the “invasion through MATRIGEL” value is on record as “invaded”. In the experiment on MMP-2, the MMP-2 protein secreted entry is “increased MMP-2 levels, but to a lesser extent”. Also, in the experiment with B16-F10 melanoma cells, the “metastatic colonies per lung” value is 13±4.5.

These data come from patent US7629310B2, “RhoB as a suppressor of cancer cell growth, cell transformation, and metastasis” (University of South Florida, priority 2000, dated 2009).
